In patent EP4806449A1, “ANTIVIRAL FOOD PRODUCT” (Creaciones Aromáticas Industriales, S.A., priority 2023, dated 2025):
In brackets after ≈: the same amount, converted by molar mass.

Columns and labels:
[1] = Toxicity controls without virus (MTT cell viability); format: cell-based; conditions: human; MRC-5 cells without 229E virus; 4.5h treatment; MTT after 5 days
Description: (§1) The MRC-5 cell line (lung-derived fibroblasts) from the American Type Culture Collection (ATCC) (CCL-171) was used. Cells were kept at 37°C and 5% CO2 in Eagle minimum essential medium (EMEM) supplemented with 10% foetal bovine serum (FBS) and antibiotics, trypsinising every 3-4 days, before reaching 90% confluence. Coronavirus 229E was obtained from the ATCC (VR-740) and amplified in MRC-5 cells, according to the ATCC protocol.
(§2) In both experiments, 5 days post-infection, differences in cell viability associated with the cytopathic effect of the virus or toxicity of the treatments were analysed by means of the MTT assay. The MTT assay is a colorimetric assay that measures the activity of enzymes that transform the MTT (methylthiazolyldiphenyl-tetrazolium bromide) molecule to formazan, purple in colour. Briefly, the medium was aspirated from the wells and 0.1 ml of 1 mg/ml MTT solution in EMEM was added to each well, and incubated at 37°C for 2 hours. Next, the MTT solution was aspirated, formazan crystals were dissolved in 0.1 ml of DMSO and absorbance was read at 570 nm (reference 660 nm). The mean absorbance values of the uninfected controls was considered to be 100% cell viability.
(§3) In order to evaluate the results, the following variables were calculated: • CC50: Half maximal cytotoxic concentration, which is the concentration of the compound of interest causing 50% toxicity. […]

[2] = test system: MRC-5 cells; assay: as above; format: cell-based; conditions: MRC-5 cells without 229E virus; 4.5h treatment; MTT after 5 days
Description: as §1, §2, §3

[3] = test system: human coronavirus 229E; conditions: positive control, dose range 0.06-264 µg/ml
Description: (§4) In this study, the ability of the product object of the invention to inhibit the infectivity of human coronavirus 229E was determined. To that end, different concentrations of grape extract were incubated together with a defined concentration of the virus of interest for 30 minutes. Exposure of host cells to the virus causes the virus to replicate within the cells, which produces a cytopathic effect on the cells that is quantified by means of a cell viability assay after 5 days of exposure.
(§5) The MRC-5 cell line (lung-derived fibroblasts) from the American Type Culture Collection (ATCC) (CCL-171) was used. […]
(§6) A stock solution of the test substance was prepared in dimethyl sulfoxide (DMSO) at 100 mg/ml. […] Next, 0.25 ml of each dilution were mixed with 0.25 ml of a 229E inoculum diluted in 2% FBS EMEM medium, with the inoculum at an infectious concentration of 1000 TCID50/ml and the maximum concentration of the extract at 1 mg/ml (concentration range analysed in the medium: 7.81-1000 µg/ml). […]
(§7) To that end, a stock solution of the test substance was prepared in dimethyl sulfoxide (DMSO) at 50 mg/ml. […] Next, 0.25 ml of each dilution were mixed with 0.25 ml of a 229E inoculum diluted in 2% FBS EMEM medium, with the inoculum at an infectious concentration of 1000 TCID50/ml and the maximum concentration of the extract at 1 mg/ml (concentration range analysed in the medium: 0.78125 µg/ml - 100 µg/ml). […]

[4] = test system: human coronavirus 229E; assay: microbe, parasite or virus in culture; conditions: MRC5
Description: as §4, §5, §6, §7

Structure (SMILES): CCN(CC)CCCC(C)Nc1ccnc2cc(Cl)ccc12 (stereo not shown) [Chloroquine, chloroquine]
- CC50 at 4.5 h [1]: > 264 µg/mL
- CC50 [2]: >264 µg/mL
- clear antiviral effect starting from [3]: ≥ 16.5 µg/mL
- EC50 [4]: 5.96 µg/mL (≈ 18.6 µM)
